Assay results published in patent US20250346587A1, “NITROGEN-CONTAINING FIVE-MEMBERED HETEROCYCLIC DERIVATIVES AS CHECKPOINT KINASE 1 INHIBITOR AND USES THEREOF” (SPEROGENIX THERAPEUTICS LIMITED, priority 2022, published 2025).
Values after ≈ are worked out from the molar mass of the structure shown.

How the values were obtained:
[1] = Microsomal stability assay, mouse liver microsome; assay type: in vitro ADME; conditions: liver microsomes, pH 7.4, 0.2 mg/mL, 1 μM compound, 37° C., read-out: Clint MLM
Method: (§1) Incubation mixture contained 0.2 mg/mL microsomes, 1 mmol NADPH, and test compound at 1 μM in 100 mmol potassium phosphate buffer at pH 7.4. The mixtures were incubated at 37° C. for 5, 15, and 30 minutes. Aliquots of the mixtures were taken at 0, 5, 15 and 30 minutes and quenched with chilled Acetonitrile:Methanol (50:50) containing internal standard. Following completion of incubation, samples were centrifuged at 4,000 rpm at 4° C. The supernatant was analyzed by LC-MS/MS and half-life, as well as intrinsic clearance (Clint), were calculated.

[2] = Microsomal stability assay, human liver microsome; assay type: in vitro ADME; conditions: liver microsomes, pH 7.4, 0.2 mg/mL, 1 μM compound, 37° C., read-out: Clint HLM
Method: as §1

[3] = Microsomal stability assay, rat liver microsome; assay type: in vitro ADME; conditions: liver microsomes, pH 7.4, 0.2 mg/mL, 1 μM compound, 37° C., read-out: Clint RLM
Method: as §1

CHK-1 kinase = CHK-1 kinase (Homo sapiens (Human), UniProt O14757); assay: CHK-1 % inhibition kinase assay (TR-FRET); assay type: biochemical; conditions: ATP 15 μM; for inhibition at 0.03 µM / inhibition at 0.3 µM: CHK1 enzyme; for inhibition at 0.03 µM: compound 30 nM; for inhibition at 0.3 µM: compound 300 nM; for IC50: TR-FRET, read-out: CHK1 IC50
Chain of CHK-1 kinase (O14757 whole entry): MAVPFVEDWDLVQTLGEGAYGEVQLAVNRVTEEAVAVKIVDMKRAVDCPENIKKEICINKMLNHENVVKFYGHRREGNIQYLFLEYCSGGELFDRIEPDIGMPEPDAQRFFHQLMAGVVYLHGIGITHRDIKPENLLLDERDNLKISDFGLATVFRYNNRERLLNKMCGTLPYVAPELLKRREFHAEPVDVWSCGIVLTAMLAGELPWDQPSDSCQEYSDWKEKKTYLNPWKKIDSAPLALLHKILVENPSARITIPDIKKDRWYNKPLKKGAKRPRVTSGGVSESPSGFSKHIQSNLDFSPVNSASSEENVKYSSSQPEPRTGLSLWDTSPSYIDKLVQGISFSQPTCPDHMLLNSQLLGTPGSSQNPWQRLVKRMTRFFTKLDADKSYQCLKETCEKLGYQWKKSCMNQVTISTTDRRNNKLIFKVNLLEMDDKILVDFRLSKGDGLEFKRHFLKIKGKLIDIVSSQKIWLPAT
Method: Inhibition of CHK-1 kinase or percent inhibition at defined concentrations was determined by TR-FRET assay. Kinase reactions were performed in a 20 μL volume in low-volume 384-well plates (Cat #Corning 4511). The concentration of substrate Fluorescein-CREBtide was maintained at 0.2 μM in the assay, and the kinase reaction buffer consisted of 50 mM HEPES pH 7.5, 0.01% BRIJ-35, 10 mM MgCl2, 1 mM EGTA. Serially diluted compounds (3-fold) in DMSO (0.5% in final reaction) were incubated with cocktail of CHK-1 kinase (6 nM; Cat #PR3959B, ThermoFisher), Fluorescein-CREBtide (0.2 μM; Cat #PV3508, ThermoFisher), ATP (15 μM; Cat #A1852, Sigma), and kinase reaction buffer. After 1 hour kinase reactions at room temperature, 10 μL of Detection mix (8 nM LanthaScreen® Tb-CREB [pSer133] antibody, Cat #PV3542, ThermoFisher with 20 mM EDTA in TR-FRET Buffer, Cat #PV3574, ThermoFisher) was added, and the plate was read with a plate reader (Synergy™ NEO; Biotek) for TR-FRET.
The resulting TR-FRET emission ratio was used to calculate the percent inhibition by normalizing to the control using the following formula: […]

[4] = Kinetic solubility assay (nephelometry); conditions: PBS, 37 °C, pH 7.4, aqueous buffer, kinetic from dmso stock
Method: Test articles were serially diluted in DMSO from concentration range of 10 mM to 0.078 mM in 96 well v-bottom dilution plate (#3363, Corning). 1 μL of test article from each well was transferred to 96 well flat bottom clear plates (#655101, Greiner) containing 99 μL of PBS at pH-7.4, which makes the test drug final concentration range from 100 μM to 0.78 μM. Samples were incubated for 1 hour at 37° C. followed by measurement of light scattering at 625 nm with a laser based micro plate Nephelometer (Nephlostar Plus, BMG Labtech). Solubility concentration (μM) was then calculated by segmental regression with Neplometer as Readout.

N#Cc1cnc(Nc2cc(-c3cc4ccccc4cc3OCC3CNC3)[nH]n2)cn1 [Compound 2.2, 5-(5-(3-(azetidine-3-ylmethoxy)naphthalen-2-yl)-1H-pyrazol-3-ylamino) pyrazine-2-carbonitrile]
microsomal CLint at 1 μM [1]: 153 µL/min/mg
microsomal CLint at 1 μM [2]: 21 µL/min/mg
microsomal CLint at 1 μM [3]: 45 µL/min/mg
inhibition at 0.03 µM (CHK-1 kinase): 80%
inhibition at 0.3 µM (CHK-1 kinase): 96%
IC50 (CHK-1 kinase): 4.14 nM
solubility kinetic at 1 h [4]: 41.8 µM (≈ 16.6 µg/mL)

N#Cc1cnc(Nc2cc(-c3cc4ccccc4cc3OCC3CNCCO3)[nH]n2)cn1 (stereo not drawn) [Compound 2.3, 5-(5-(3-(morpholin-2-ylmethoxy)naphthalen-2-yl)-1H-pyrazol-3-ylamino) pyrazine-2-carbonitrile]
microsomal CLint at 1 μM [1]: 85 µL/min/mg
microsomal CLint at 1 μM [2]: 26 µL/min/mg
microsomal CLint at 1 μM [3]: 39 µL/min/mg
inhibition at 0.03 µM (CHK-1 kinase): 41%
inhibition at 0.3 µM (CHK-1 kinase): 81%
IC50 (CHK-1 kinase): 8.15 nM
solubility kinetic at 1 h [4]: 39.7 µM (≈ 17 µg/mL)

N#Cc1cnc(Nc2cc(-c3cc4ccccc4cc3OCC3CCNC3)[nH]n2)cn1 (stereo not drawn) [Compound 2.4, 5-(5-(3-(pyrrolidin-3-ylmethoxy)naphthalen-2-yl)-1H-pyrazol-3-ylamino) pyrazine-2-carbonitrile]
microsomal CLint at 1 μM [1]: 142 µL/min/mg
microsomal CLint at 1 μM [2]: 33 µL/min/mg
microsomal CLint at 1 μM [3]: 94 µL/min/mg
inhibition at 0.03 µM (CHK-1 kinase): 70%
inhibition at 0.3 µM (CHK-1 kinase): 97%
IC50 (CHK-1 kinase): 2.34 nM
solubility kinetic at 1 h [4]: 7.77 µM (≈ 3.2 µg/mL)

N#Cc1cnc(Nc2cc(-c3cc4ccccc4cc3OCC3CCCNC3)[nH]n2)cn1 (stereo not drawn) [Compound 2.5, 5-(5-(3-(piperidin-3-ylmethoxy)naphthalen-2-yl)-1H-pyrazol-3-ylamino) pyrazine-2-carbonitrile]
microsomal CLint at 1 μM [1]: 111 µL/min/mg
microsomal CLint at 1 μM [2]: 14 µL/min/mg
microsomal CLint at 1 μM [3]: 124 µL/min/mg
inhibition at 0.03 µM (CHK-1 kinase): 72%
inhibition at 0.3 µM (CHK-1 kinase): 96%
IC50 (CHK-1 kinase): 4.36 nM
solubility kinetic at 1 h [4]: 41.6 µM (≈ 17.7 µg/mL)

N#Cc1cnc(Nc2cc(-c3cc4ccccc4cc3OCCN)[nH]n2)cn1 [Compound 2.6, 5-((5-(3-(2-aminoethoxy)naphthalen-2-yl)-1H-pyrazol-3-yl)amino) pyrazine-2-carbonitrile]
microsomal CLint at 1 μM [1]: 153 µL/min/mg
microsomal CLint at 1 μM [2]: 3 µL/min/mg
microsomal CLint at 1 μM [3]: 58 µL/min/mg
inhibition at 0.03 µM (CHK-1 kinase): 61%
inhibition at 0.3 µM (CHK-1 kinase): 90%
IC50 (CHK-1 kinase): 15.7 nM
solubility kinetic at 1 h [4]: 18.8 µM (≈ 6.98 µg/mL)

N#Cc1cnc(Nc2cc(-c3cc4ccccc4cc3OCCCN)[nH]n2)cn1 [Compound 2.7, 5-(5-(3-(3-aminopropoxy)naphthalen-2-yl)-1H-pyrazol-3-ylamino) pyrazine-2-carbonitrile]
microsomal CLint at 1 μM [1]: 118 µL/min/mg
microsomal CLint at 1 μM [2]: 6 µL/min/mg
microsomal CLint at 1 μM [3]: 44 µL/min/mg
inhibition at 0.03 µM (CHK-1 kinase): 95%
inhibition at 0.3 µM (CHK-1 kinase): 100%
IC50 (CHK-1 kinase): 0.933 nM
solubility kinetic at 1 h [4]: 21.3 µM (≈ 8.21 µg/mL)
